What was measured:
[1] = tested on: melanoma cell lines with characterized TERT promoter status (19 cell lines); experiment: 6-point 72 h MTS proliferation assay, WT versus promoter mutant melanoma cell lines; assay type: cell-based, human
Description: FIGS. 13A-13C are a set of graphs showingselective reduction in viability (A) and hTERT expression (B) in melanoma cells carrying hTERT core promotor mutations. NHM-002 (normal human melanocytes) and a G124A mutant cell line were treated with vehicle, 1.25, 2.5, and 5 μM GTC365 for 72 h. Viability was reduced in hTERT mutant melanoma cells by 50% (left). […] (C) Differential response to GTC365 in WT and promoter mutant cell lines.
Next, to assess the selectivity of GTC365 for hTERT-dependent cancer cells relative to normal precursorcells, we compared the effects of a range of […] on viability at 72 h in normal humanmelanocytes (NHM-002) relative to those of UACC-903, aG124A mutant (FIG. 13A). […] To confirm that the reduction in cell viability was aresult of hTERT downregulation, we performed reverse transcription and qPCR to measure the mRNA level of hTERT expression in cells treated with DMSO or 5 μMGTC365. hTERT expression was reduced by 41% in themelanoma cell line after 72 h but was undetectable in normalmelanocytes, even in the absence of GTC365 (FIG. 13B). Finally, tobroadly assess the selectivity of GTC365 for hTERT promotermutant versus WT cells, we conducted a 6-point 72 h MTSproliferation assay to determine EC50s in 14 additional melanoma cell lines with characterized TERT promoter status([…]) (FIG. 13C). […]

[2] = molecular target: WT 5-12 G-quadruplex of hTERT core promoter (FAM/TAMRA probe); experiment: FRET assay for compound screening and Kd, WT probe; assay type: binding, human
Description: FRET assay for compound screening and determination of Kd value. FRET probes of WT, G124/125A, and G146A of the 5-12 G-quadruplex were synthesized and labeled with FAM (Ex. 490 nm/Em. 520 nm) and TAMRA (Ex. 560 nm/Em. 580 nm) at each end by MGW Operon Inc. The WT probe (50 nM) was annealed in a buffer containing 10 mM Tris-HCl (pH 7.5) and 5 mM KCl by heating at 95° C. for 5 min and slowly cooling to room temperature. Compounds (50 μM) and probe were incubated for 1 h at room temperature. The same volume of DMSO served as a control. For Kd value determination, the WT, G124/125A, and G146A probes were annealed, and then several concentrations of compound were treated for 1 h at room temperature. Dose-dependent fluorescence intensity at 520 nm was measured by a microplate reader (BioTek Synergy HT). The data were corrected with the blank signal of buffer and compound. The relative fluorescence intensity compared to DMSO was used for binding curve fitting to determine Kd value using GraphPad Prism software.
The hTERT core promoter region includes 12 runs of consecutive guanines that form two G-quadruplexes in tandem on the G-rich strand. […] When the G-quadruplex is folded, two fluorophores are in proximity, which leads to a decrease in FAM fluorescence. […]

[3] = tested on: G146A mutant hTERT G-quadruplex; experiment: CD melting (Tm), G146A mutant; assay type: binding, human; conditions: 2 equiv
Description: Circular dichroism. Oligomers of WT, G124A, G124/125A, G138/139A and G146A were synthesized and HPSF-purified by MGW Operon, Inc. For CD analysis, oligomers (5 μM) in a buffer containing 10 mM Tris-HCl (pH 7.5) and 140 mM KCl were annealed. For the CD analysis of the complex of oligomers and compounds, oligomers (5 μM) in a buffer containing 10 mM Tris-HCl (pH 7.5) and 5 mM KCl for GTC365 or 1 mM KCl for BRACO-19 were annealed. Oligomers and GTC365 or BRACO-19 were incubated overnight at room temperature. For the full-length of C-rich strand, the oligomer in a buffer of 10 mM Na cacodylate (pH 6.6) was annealed and then incubated with GTC365 overnight. CD analysis was conducted on a Jasco 810 spectropolarimeter (Jasco, Easton, Md.) using a quartz cell with 1 mm of path length, 1 nm of band width, and 1 s of response time for spectra at 20° C. Melting curves for the determination of Tm were obtained by recording ellipticity at 262 nm with increasing temperatures from 25° C. to 95° C. at a rate of 1.6° C./min. Tm of the C-rich strand with GTC365 was obtained from the CD signal at 286 nm within 10-60° C.
CD and DMS footprinting analyses were conducted to characterize the binding of GTC365 and BRACO-19 to the 5-12 G-quadruplex. […] To verify the effects of compounds on the thermal stability of the WT and the mutant G-quadruplexes, Tms were determined by CD. […]

N=C(N)NCCCS(=O)(=O)Nc1ccc(Nc2c3ccccc3nc3cc([N+](=O)[O-])ccc23)cc1 [GTC365]
response (EC50) in WT versus mutant melanoma cell lines [1]: significant differential response
Kd ([2]; WT probe, FAM- and TAMRA-labeled oligomer): ~400 nM
reduction of fluorescence intensity (FRET) ([2]; compounds 50 μM, WT probe 50 nM, 10 mM Tris-HCl, 5 mM KCl, 1 h): 94%
Tm more increased compared to the WT [3]: 6-7 °C
